How the values were obtained:
[1] = SPF (sun protection factor) calculated from UV absorption spectra with the Mansur equation; type: physicochemical; conditions: 0.01 mg/ml
Method: Absorption spectra were used to calculate SPF (sun protection factor) values using the Mansur equation, according to procedures described by Dutra et al. [Braz J Pharma Sci 2004, 40:381-385], using OptLabTM X software ([…] order to investigate UVB blocking properties of various plants, a large-scale screening of traditionally-used herbs which grow in the Judean Desert was performed. The leaves, twigs, branches, fruits, and roots of each tested plant were collected, dried, ground and extracted separately in ethanol, water, chloroform or propylene glycol methyl ether acetate (PMA) using a Soxhlet system.

[2] = Photostability of SH-401 films on PMMA slides exposed to UV radiation, SPF versus time; type: physicochemical; conditions: film on PMMA slide, 12 hours of exposure to UV radiation (FIG. 7)
Method: In order to evaluate photostability, uniform films of pure SH-401 were prepared on PMMA (polymethyl methacrylate) slides by depositing 2 ml of […] solution on the slides and evaporating the solvent. The samples were then exposed to UV radiation for various time intervals, ranging up to 25 hours. The glass plates were then immersed in a mixture of ethanol/water (2:98% v/v) and the films were dissolved ultrasonically. The UV samples were then quantified by UV-visible absorption spectroscopy and the SPF value was determined according to procedures described hereinabove and plotted as a function of time.

human skin explants [3] = test: Epidermal cell viability in human skin explants, MTT assay; type: cell-based; conditions: topical application, entire concentration range tested (up to maximal solubility) (FIG. 8A)
Excerpt: (§1) Skins were obtained with permission from 30-60 year-old healthy women undergoing aesthetic abdomen surgery, after signing an informed consent. A mechanical skin press was used to section the skin to 0.8×0.8 cm^2 pieces, according to procedures described in Portugal-Cohen et al. [Exp Dermatol 2011, 20:749-755]. The skin explants were maintained in an air/liquid interface, dermal side submerged in the medium, according to procedures described in Portugal-Cohen et al. [Exp Dermatol 2011, 20:749-755] and Cohen et al. [Dead Sea and Arava Studies 2015, 7:66-74]. The human skin explants were laid in 6-well culture plates containing DMEM (Dulbecco's modified Eagle medium) supplemented with 100 units/ml penicillin and 100 μg/ml streptomycin), dermal side down in the medium and epidermis up. All samples were used after an overnight recovery.
In order to investigate the safety and efficacy of the active compound SH-401 (isolated as described in Example 2), several experiments were performed on human skin explants, according to procedures described in the Materials and Methods section hereinabove.

human skin explants [4] = test: UVB-induced apoptosis in epidermis of human skin explants, caspase-3 activation assay; type: cell-based; conditions: 24 hours after UVB 350 mJ/cm^2; 0.02-2 μg/cm^2; comparable to Ultrasol SPF 30 formulation (FIG. 8B)
Excerpt: as §1

TNFα = test: UVB-induced TNFα hypersecretion in human skin explants, ELISA; type: cell-based; conditions: 24 hours after UVB 350 mJ/cm^2; 0.02-2 μg/cm^2; comparable to Ultrasol SPF 30 formulation (FIG. 8C)
Excerpt: as §1

human skin explants [5] = test: UVB-induced ROS generation in skin explants, DCFDA assay; type: cell-based; conditions: 0.02-2 μg/cm^2, with UVB (FIG. 9)
Excerpt: as §1
(§2) A common feature of UVB-induced damage is the generation of ROS (reactive oxygen species), which increases DNA damage, amplifies the generation of lipid peroxidation and hampers proteins and membranes within the cells [Schuch et al., Free Rad Biol Med 2017, 107:110-124]. […] ROS generation upon UVB radiation was evaluated in skin explants both by DCFDA (dichlorofluorescin diacetate) assay, as well as by measuring lipid peroxidation (by ELISA), which is associated with ROS generation.

human skin explants [6] = test: UVB-induced lipid peroxidation (MDA) in skin explants, ELISA; type: cell-based; conditions: 0.02-2 μg/cm^2, with UVB (FIG. 10)
Excerpt: as §1, §2

[7] = Antioxidant capacity by DPPH colour shift, Trolox equivalents; conditions: 1 weight percent solution (FIG. 11)
Excerpt: Antioxidant capacity was further evaluated using the DPPH (diphenylpicrylhydrazyl) method. The color shift of DPPH in the presence of SH-401 and converted to units of Trolox (6-hydroxy-2,5,7,8-tetramethylchroman-2-carboxylic acid) equivalent antioxidant capacity based on a calibration curve.

human skin explants [8] = test: DNA fragmentation in epidermis cells of skin explants, COMET assay; type: cell-based; conditions: UVB 350 mJ/cm^2, 2 μg/cm^2 (FIG. 12)
Excerpt: as §1

human skin explants [9] = test: Cyclobutane pyrimidine dimers (CPD) in epidermis cells from skin explants, ELISA; type: cell-based; conditions: UVB 350 mJ/cm^2, 0.01-2 μg/cm^2 (FIG. 13)
Excerpt: as §1

human skin explants [10] = test: Histological examination of UVB-irradiated skin explants; type: cell-based; conditions: UVB 350 mJ/cm^2 (FIGS. 14A-14D)
Excerpt: as §1

pro-collagen = test: Pro-collagen level in UVB-irradiated skin explants, ELISA; type: cell-based, human; conditions: following UVB radiation (FIG. 15A)
Excerpt: as §1

[11] = test system: matrix metalloproteinase-1 (MMP1); test: MMP1 in UVB-irradiated skin explants, ELISA; type: cell-based, human; conditions: following UVB radiation (FIG. 15B)
Excerpt: as §1

HaCaT cells = test: Wound closure in confluent HaCaT cell in vitro model; type: cell-based; conditions: confluent HaCaT cells with induced wound, 24 hours (FIG. 16)
Method: The effect of SH-401 on wound healing in skin was assessed using a confluent HaCaT cell in vitro model of wound closure.

1,2,3,4,6-pentagalloyl-β-D-glucose [SH-401]
increase of SPF value relative to the crude extract [1]: more than 10 fold | stability towards UV radiation (change in SPF value) [2]: essentially no change in SPF value | skin viability (MTT) (human skin explants [3]): did not compromise skin viability | UVB-induced apoptosis in the epidermis (caspase-3 activation) (human skin explants [4]): attenuated | UVB-induced TNFα hypersecretion (TNFα): attenuated | UVB-induced ROS generation (DCFDA) (human skin explants [5]): attenuated | UVB-induced lipid peroxidation (MDA) (human skin explants [6]): attenuated | Trolox equivalent antioxidant capacity (DPPH) [7]: approximately 2,310 micromole Trolox equivalent (TE) units per 100 grams | UVB-induced DNA damage (COMET) (human skin explants [8]): attenuated | UVB-induced formation of cyclobutane pyrimidine dimers (CPD) (human skin explants [9]): reduced | UVB-induced pyknotic sunburn cells and reduction of the epidermal layer (histology) (human skin explants [10]): reversed this deleterious effect of the radiation | collagen synthesis (pro-collagen) (pro-collagen): enhanced | MMP1 activity [11]: reduced | wound closure (HaCaT cells): enhanced wound closure

Source: US20220117879A1, “PHOTO-PROTECTIVE PLANT-DERIVED COMPOSITION” (Ariel Scientific Innovations Ltd., priority 2019, published 2022)
